According to PubChem BioAssay (NCI):
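Grown in 96-well plates, cells were treated for 48 hours with each compound at five concentrations. Insufficient inhibition: endpoint recorded as highest concentration tested. The concentration for full growth arrest is given as TGI.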

What was measured:
Experiment in all cases: inhibition of tumour cell growth, NCI panel, 48 h
DLD-1 colon = test system: DLD-1 colon
HL-60(TB) leukemia = test system: HL-60(TB) leukemia
DMS 273 small cell lung = test system: DMS 273 small cell lung
HOP-62 NSCLC = test system: HOP-62 NSCLC
SK-MEL-5 melanoma = test system: SK-MEL-5 melanoma
OVCAR-5 ovarian = test system: OVCAR-5 ovarian
HCT-116 colon = test system: HCT-116 colon
A498 renal = test system: A498 renal
CCRF-CEM leukemia = test system: CCRF-CEM leukemia
DMS 114 small cell lung = test system: DMS 114 small cell lung
LOX IMVI melanoma = test system: LOX IMVI melanoma
UACC-257 melanoma = test system: UACC-257 melanoma
UACC-62 melanoma = test system: UACC-62 melanoma
IGROV1 ovarian = test system: IGROV1 ovarian
A549 NSCLC = test system: A549 NSCLC
MALME-3M melanoma = test system: MALME-3M melanoma
NCI-H522 lung = test system: NCI-H522 lung
CAKI-1 renal = test system: CAKI-1 renal
SK-MEL-28 melanoma = test system: SK-MEL-28 melanoma
HCT-15 colon = test system: HCT-15 colon
HCC-2998 colon = test system: HCC-2998 colon
OVCAR-4 ovarian = test system: OVCAR-4 ovarian
SF-539 CNS = test system: SF-539 CNS
COLO 205 colon = test system: COLO 205 colon
XF 498 CNS = test system: XF 498 CNS
SK-MEL-2 melanoma = test system: SK-MEL-2 melanoma
K-562 leukemia = test system: K-562 leukemia
RPMI-8226 leukemia = test system: RPMI-8226 leukemia
SNB-19 CNS = test system: SNB-19 CNS
SN12C renal = test system: SN12C renal
SNB-75 CNS = test system: SNB-75 CNS
UO-31 renal = test system: UO-31 renal
ACHN renal = test system: ACHN renal
NCI-H226 lung = test system: NCI-H226 lung
SNB-78 CNS = test system: SNB-78 CNS
TK-10 renal = test system: TK-10 renal
RXF 393 renal = test system: RXF 393 renal
M19-MEL melanoma = test system: M19-MEL melanoma
HOP-92 NSCLC = test system: HOP-92 NSCLC
OVCAR-8 ovarian = test system: OVCAR-8 ovarian
HT29 colon = test system: HT29 colon
KM12 colon = test system: KM12 colon
U251 CNS = test system: U251 CNS
786-0 renal = test system: 786-0 renal
SR leukemia = test system: SR leukemia
SW-620 colon = test system: SW-620 colon
EKVX NSCLC = test system: EKVX NSCLC
SF-295 CNS = test system: SF-295 CNS
NCI-H460 lung = test system: NCI-H460 lung
HOP-18 NSCLC = test system: HOP-18 NSCLC
SK-OV-3 ovarian = test system: SK-OV-3 ovarian
SF-268 CNS = test system: SF-268 CNS
MOLT-4 leukemia = test system: MOLT-4 leukemia
NCI-H23 lung = test system: NCI-H23 lung
OVCAR-3 ovarian = test system: OVCAR-3 ovarian
M14 melanoma = test system: M14 melanoma
LXFL 529 NSCLC = test system: LXFL 529 NSCLC
KM20L2 colon = test system: KM20L2 colon
RXF-631 renal = test system: RXF-631 renal

Measured: TGI

CCOC(=O)C1=C(O)c2ccccc2C(=O)C1=O
> 100 µM: DLD-1 colon | HL-60(TB) leukemia | DMS 273 small cell lung | HOP-62 NSCLC | SK-MEL-5 melanoma | OVCAR-5 ovarian | HCT-116 colon | A498 renal | CCRF-CEM leukemia | DMS 114 small cell lung | LOX IMVI melanoma | UACC-257 melanoma | UACC-62 melanoma | IGROV1 ovarian | A549 NSCLC | MALME-3M melanoma | NCI-H522 lung | CAKI-1 renal | SK-MEL-28 melanoma | HCT-15 colon | HCC-2998 colon | OVCAR-4 ovarian | SF-539 CNS | COLO 205 colon | XF 498 CNS | SK-MEL-2 melanoma | K-562 leukemia | RPMI-8226 leukemia | SNB-19 CNS | SN12C renal | SNB-75 CNS | UO-31 renal | ACHN renal | NCI-H226 lung | SNB-78 CNS | TK-10 renal | RXF 393 renal | HOP-92 NSCLC | OVCAR-8 ovarian | HT29 colon | KM12 colon | U251 CNS | 786-0 renal | SR leukemia | SW-620 colon | EKVX NSCLC | SF-295 CNS | NCI-H460 lung | HOP-18 NSCLC | SK-OV-3 ovarian | SF-268 CNS | MOLT-4 leukemia | NCI-H23 lung | OVCAR-3 ovarian | M14 melanoma
54.4 µM: M19-MEL melanoma

Cc1nccc2c1cnc1ccnn12
> 100 µM: DLD-1 colon | HL-60(TB) leukemia | DMS 273 small cell lung | HOP-62 NSCLC | LXFL 529 NSCLC | SK-MEL-5 melanoma | OVCAR-5 ovarian | HCT-116 colon | A498 renal | CCRF-CEM leukemia | DMS 114 small cell lung | LOX IMVI melanoma | UACC-257 melanoma | IGROV1 ovarian | A549 NSCLC | MALME-3M melanoma | NCI-H522 lung | CAKI-1 renal | SK-MEL-28 melanoma | HCT-15 colon | HCC-2998 colon | OVCAR-4 ovarian | SF-539 CNS | COLO 205 colon | SK-MEL-2 melanoma | KM20L2 colon | K-562 leukemia | RPMI-8226 leukemia | SNB-19 CNS | SN12C renal | SNB-75 CNS | UO-31 renal | ACHN renal | NCI-H226 lung | SNB-78 CNS | TK-10 renal | RXF 393 renal | M19-MEL melanoma | HOP-92 NSCLC | OVCAR-8 ovarian | HT29 colon | KM12 colon | U251 CNS | 786-0 renal | SR leukemia | SW-620 colon | EKVX NSCLC | NCI-H460 lung | SK-OV-3 ovarian | SF-268 CNS | RXF-631 renal | MOLT-4 leukemia | NCI-H23 lung | OVCAR-3 ovarian | M14 melanoma
